The supplement of paper PMC10307832

Experiments:
Experiment in all cases: relative viability (nuclei count vs DMSO), 5 days (fraction); higher = more cells survive
[1] = compound: C#Cc1cccc(Nc2ncnc3cc(OC)c(OCCCCCCC(=O)NO)cc23)c1 [CUDC-101] + CS(=O)(=O)N1CCN(Cc2cc3nc(-c4cccc5[nH]ncc45)nc(N4CCOCC4)c3s2)CC1 [Pictilisib] (partner 1 µM)
Procedure, shortened: (§1)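 Nuclei were stained with Hoechst during a one-step fixation (final 0.05% Triton X-100, 1% formaldehyde, 1 ug/ml Hoechst) carried out 5 days after dosing, then counted on 4× images. The cells, lung cancer lines in 1536-well plates, had been dosed by pin tool the day after seeding with one drug alone or a fixed anchor-drug dose plus five library-drug doses (not always all listed) in √10 steps. Relative viability is the nuclei count in treated wells divided by that in vehicle wells, and each value is the median of duplicate plates.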

[2] = compound: C#Cc1cccc(Nc2ncnc3cc(OC)c(OCCCCCCC(=O)NO)cc23)c1 [CUDC-101] + O=C(CCCCCCC(=O)Nc1ccccc1)NO [Vorinostat] (partner 1 µM)
Procedure, shortened: as §1

[3] = compound: C1=CC=C2C(=C1)N=C(S2)C(C#N)C3=NC(=NC=C3)NCCC4=CN=CC=C4 + Cc1nc(NC(=O)N2CCC[C@H]2C(N)=O)sc1-c1ccnc(C(C)(C)C(F)(F)F)c1 [Alpelisib] (partner 2 µM)
Procedure, shortened: as §1

[4] = compound: COc1cc2/c(=N/c3ccc(Br)cc3F)nc[nH]c2cc1OCC1CCN(C)CC1 [Vandetanib] + Cc1nc(NC(=O)N2CCC[C@H]2C(N)=O)sc1-c1ccnc(C(C)(C)C(F)(F)F)c1 [Alpelisib] (partner 2 µM)
Procedure, shortened: as §1

| Cell Line | relative viability ([1]; first compound 0.01 µM) | relative viability ([1]; first compound 0.03162 µM) | relative viability ([1]; first compound 0.1 µM) | relative viability ([1]; first compound 0.3162 µM) | relative viability ([1]; first compound 1 µM) | relative viability ([2]; first compound 0.01 µM) | relative viability ([2]; first compound 0.03162 µM) | relative viability ([2]; first compound 0.1 µM) | relative viability ([2]; first compound 0.3162 µM) | relative viability ([2]; first compound 1 µM) | relative viability ([3]; first compound 0.005 µM) | relative viability ([3]; first compound 0.01581 µM) | relative viability ([3]; first compound 0.05 µM) | relative viability ([3]; first compound 0.1581 µM) | relative viability ([3]; first compound 0.5 µM) | relative viability ([4]; first compound 0.02 µM) | relative viability ([4]; first compound 0.06325 µM) | relative viability ([4]; first compound 0.2 µM) | relative viability ([4]; first compound 0.6325 µM) | relative viability ([4]; first compound 2 µM) |
| --- | --- | --- | --- | --- | --- | --- | --- | --- | --- | --- | --- | --- | --- | --- | --- | --- | --- | --- | --- | --- |
| NCI-H2085 | 0.539 | 0.549 | 0.493 | 0.489 | 0.304 | 0.772 | 0.771 | 0.814 | 0.801 | 0.628 | 0.87 | 0.875 | 0.912 | 0.959 | 0.867 | 0.98 | 0.901 | 0.873 | 0.869 | 0.936 |
| NCI-H358 | 0.354 | 0.37 | 0.349 | 0.397 | 0.258 | 0.697 | 0.733 | 0.695 | 0.447 | 0.128 | 0.603 | 0.795 | 0.802 | 0.981 | 0.744 | 0.741 | 0.733 | 0.175 | 0.533 | 0.385 |
| NCI-H2023 | 0.245 | 0.223 | 0.257 | 0.226 | 0.151 | 0.781 | 0.654 | 0.716 | 0.703 | 0.435 | 0.625 | 0.659 | 0.649 | 0.681 | 0.404 | 0.568 | 0.49 | 0.732 | 0.524 | 0.486 |
| SW 1573 | 0.582 | 0.507 | 0.587 | 0.532 | 0.313 | 0.979 | 0.689 | 0.675 | 0.773 | 0.468 | 0.628 | 0.726 |  | 0.803 | 0.686 | 0.75 | 0.726 | 0.753 | 0.969 | 0.743 |
| NCI-H3122 | 0.539 | 0.57 | 0.692 | 0.73 | 0.54 | 1.04 | 0.912 | 0.895 | 1.01 | 0.685 | 0.676 | 0.791 | 0.819 | 0.977 | 0.852 | 0.781 | 0.756 | 0.778 | 0.765 | 0.822 |
| NCI-H661 | 0.477 | 0.422 | 0.476 | 0.487 | 0.358 | 0.783 | 0.764 | 0.748 | 0.534 | 0.362 | 0.632 | 0.482 | 0.61 | 0.841 | 0.798 | 0.602 | 0.565 | 0.604 | 0.441 | 0.582 |
| NCI-H441 | 0.694 | 0.537 | 0.561 | 0.497 | 0.401 | 0.968 | 0.915 | 0.784 | 0.937 | 0.618 |  | 0.623 | 0.803 | 1.27 | 0.487 | 0.795 | 0.535 | 0.896 | 0.848 | 0.728 |
| NCI-H596 | 0.403 | 0.382 | 0.422 | 0.384 | 0.68 | 0.569 | 0.605 | 0.501 | 0.735 | 0.501 | 0.401 | 0.576 | 0.44 | 0.541 | 0.384 | 0.515 | 0.518 | 0.618 | 0.593 | 0.453 |
